Data published in PubChem BioAssay AID1552 (Sanford-Burnham Center for Chemical Genomics, 2009).
Activity calls are given as the source filed them. How the calls were made is not given here.

biological target: Ubiquitin-conjugating enzyme E2 N (Homo sapiens) (UniProt P61088); assay: UBE2N binders by NMR, biophysical, purified protein (AID 1552); settings: NMR binding to purified UBE2N
Sequence (P61088 whole entry, looked up): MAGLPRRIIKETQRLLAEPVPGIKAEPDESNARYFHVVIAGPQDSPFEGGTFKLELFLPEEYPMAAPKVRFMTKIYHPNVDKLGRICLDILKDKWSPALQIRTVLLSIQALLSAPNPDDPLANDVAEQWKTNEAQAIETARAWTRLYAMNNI

| SMILES | Kd |
| --- | --- |
| Cc1ccccc1OCC(=O)O | > 4 mM (inactive) |
| CC(=O)O[C@@H]1CC2C(C)(CC[C@H](O)C2(C)C)C2CC[C@]3(C)C(=CC(=O)O[C@H]3c3ccoc3)C21C (stereo partly drawn) | > 4 mM (inactive) |
| Cc1nccc(-c2cccc(N)c2)n1 | > 4 mM (inactive) |
| O=C(O)c1cc(F)cc2c1OCOC2 | > 4 mM (inactive) |
| O=C(OC[C@H]1O[C@H](OC(=O)c2cc(O)c(O)c(OC(=O)c3cc(O)c(O)c(O)c3)c2)[C@H](OC(=O)c2cc(O)c(O)c(OC(=O)c3cc(O)c(O)c(O)c3)c2)[C@@H](OC(=O)c2cc(O)c(O)c(OC(=O)c3cc(O)c(O)c(O)c3)c2)[C@@H]1OC(=O)c1cc(O)c(O)c(OC(=O)c2cc(O)c(O)c(O)c2)c1)c1cc(O)c(O)c(OC(=O)c2cc(O)c(O)c(O)c2)c1 | > 4 mM (inactive) |
| Nc1[nH]c(=S)[nH]c(=O)c1-c1ccccc1 | > 4 mM (inactive) |
| COc1ccc2nc(SCC(N)=O)[nH]c2c1 | > 4 mM (inactive) |
| Cc1cccc(OCc2nnc(N)s2)c1 | > 4 mM (inactive) |
| O=C1CC(c2ccccc2)n2ncnc2N1 (stereo not drawn) | > 4 mM (inactive) |
| Cc1nn(C)c2sc(CO)cc12 | > 4 mM (inactive) |
| COc1cc2nc(N3CCNCC3)nc(N)c2cc1OC | > 4 mM (inactive) |
| O=C(O)c1csc2ccccc12 | > 4 mM (inactive) |
| CC(C)=CCc1c(O)cc(C)oc1=O | > 4 mM (inactive) |
| CN(C)C(=O)Nc1ccc(F)cc1F | > 4 mM (inactive) |
| O=c1cc(-c2ccc(O)cc2)oc2cc(O[C@@H]3O[C@H](CO)[C@@H](O)[C@H](O)[C@H]3O[C@@H]3OC[C@](O)(CO)[C@H]3O)cc(O)c12 | > 4 mM (inactive) |
| O=C1CSC(=NC(=O)c2ccccc2)N1 | > 4 mM (inactive) |
| Cn1nc(C(=O)N2CCCC2)c2ccccc2c1=O | > 4 mM (inactive) |
| Cc1nnsc1C(=O)Nc1cccc(S(N)(=O)=O)c1 | > 4 mM (inactive) |
| CC(=O)c1cccc(NC2=NCC(C)(C)S2)c1 | > 4 mM (inactive) |
| COc1ccc(NS(=O)(=O)c2ccc(N)cc2)nn1 | > 4 mM (inactive) |
| OCn1nnn(-c2ccccc2)c1=S | > 4 mM (inactive) |
| CCCCCC1C(=O)CCC1CC(=O)OC (stereo not drawn) | > 4 mM (inactive) |
| O=c1cc(-c2ccc(O)cc2)[nH]c(=S)[nH]1 | > 4 mM (inactive) |

| SMILES | Kd |
| --- | --- |
| Nc1cccc(OC(F)(F)F)c1 | > 4 mM (inactive) |
| Cc1ccsc1/C=c1\sc2ncnn2c1=O | > 4 mM (inactive) |
| O=C1CCC(C(=O)NCc2ccc(Cl)cc2)N1 (stereo not drawn) | > 4 mM (inactive) |
| CC(C)CC(=O)Nc1c[nH]c(=O)[nH]c1=O | > 4 mM (inactive) |
| CC(=O)Nc1nnc(-c2ccncc2)s1 | > 4 mM (inactive) |
| Cc1nc2cc(NC(=O)Nc3nccs3)ccc2n1C | > 4 mM (inactive) |
| C=C1C(N)CC2CC1C2(C)C (stereo not drawn) | > 4 mM (inactive) |
| O=C(NC1CCS(=O)(=O)C1)c1ccccc1 (stereo not drawn) | > 4 mM (inactive) |
| COc1ccccc1NC(=O)c1ccc(Br)o1 | > 4 mM (inactive) |
| COCC(=O)Nc1c(C(N)=O)oc2ccccc12 | > 4 mM (inactive) |
| CCNC(=S)N1CCCC(C(N)=O)C1 (stereo not drawn) | > 4 mM (inactive) |
| CCOC(=O)c1c[nH]c2c(F)cccc2c1=O | > 4 mM (inactive) |
| COc1c(O)cc2oc3cc(O)c(CC=C(C)C)c(O)c3c(=O)c2c1CC=C(C)C | > 4 mM (inactive) |
| CCc1ccc(C(=O)N2CCCC2)s1 | > 4 mM (inactive) |
| COc1ccc2ccc(=O)oc2c1 | > 4 mM (inactive) |
| NC(=O)CSc1nnc(-c2ccncc2)o1 | > 4 mM (inactive) |
| S=C(Cc1cccnc1)N1CCOCC1 | > 4 mM (inactive) |
| [O-][n+]1onc2c1CCc1c-2nc(-c2ccccc2)n1O | > 4 mM (inactive) |
| O=C(Nc1ccon1)c1cccc(Cl)c1 | > 4 mM (inactive) |
| CC1CCN(S(=O)(=O)N(C)C)CC1 | > 4 mM (inactive) |
| NS(=O)(=O)c1ccc(N=C2NC(=O)CS2)cc1 | > 4 mM (inactive) |
| NC(=O)NC1C=CS(=O)(=O)C1 (stereo not drawn) | > 4 mM (inactive) |
| CSc1nnc2ccc(-c3cccnc3)nn12 | > 4 mM (inactive) |

| SMILES | Kd |
| --- | --- |
| CC(=O)c1c(C)nc(-c2ccc(F)cc2)n1O | > 4 mM (inactive) |
| CC(C)CCCC(C)[C@H]1CCC2C3CC[C@H]4CC(=O)CC[C@]4(C)C3CC[C@@]21C (stereo partly drawn) | > 4 mM (inactive) |
| NC(=O)C1CCN(C(=O)Nc2ccccc2)CC1 | > 4 mM (inactive) |
| C[C@H]1OC(O[C@H]2[C@@H](O)CC(O[C@H]3[C@@H](O)C[C@H](O[C@H]4CC[C@]5(C)C6CC[C@]7(C)[C@@H](C8=CC(=O)OC8)[C@@H](O)C[C@]7(O)[C@@H]6CC[C@@H]5C4)O[C@@H]3C)O[C@@H]2C)C[C@H](O)C1O (stereo partly drawn) | > 4 mM (inactive) |
| O=[N+]([O-])c1c[n+]([O-])n(-c2ccccc2)n1 | > 4 mM (inactive) |
| Cc1noc(C)c1C(=O)Nc1ccc2c(c1)CCC2 | > 4 mM (inactive) |
| Cc1ccc(-c2nc(-c3cccnc3)no2)c(C)c1 | > 4 mM (inactive) |
| CC(=O)O[C@@H]1CC2C(C)(C)C(=O)C=C[C@]2(C)C2CC[C@]3(C)C(=CC(=O)O[C@H]3c3ccoc3)[C@@]21C (stereo partly drawn) | > 4 mM (inactive) |
| COC(=O)c1c(SC)nc(-c2ccccc2)[nH]c1=O | > 4 mM (inactive) |
| CC(=O)Nc1cnn(-c2ccccc2)c(=O)c1Cl | > 4 mM (inactive) |
| NC(=O)C1CCN(c2nccc(C(F)(F)F)n2)CC1 | > 4 mM (inactive) |
| NCc1ccc(-c2csnn2)cc1 | > 4 mM (inactive) |
| O=C1Nc2ccc(S(=O)(=O)NCCO)c3cccc1c23 | > 4 mM (inactive) |
| CC(=O)Nc1ccc(Oc2nc(C)cc(C)n2)cc1 | > 4 mM (inactive) |
| O=C(NCc1cccs1)c1nc2ncccn2n1 | > 4 mM (inactive) |
| NC(=O)CSc1nnc(-c2cccnc2)o1 | > 4 mM (inactive) |
| CC(C)=NNC(=O)c1ccccc1 | > 4 mM (inactive) |
| CC1SC(=NC(=O)c2ccncc2)NC1=O (stereo not drawn) | > 4 mM (inactive) |
| Cc1cc(=O)c2c(O)c(C)c(O)cc2o1 | > 4 mM (inactive) |
| O=C(O)c1ccc(NCc2cccnc2)cc1 | > 4 mM (inactive) |
| O=C(Nc1ccccc1)c1cccc(N2C(=O)CCC2=O)c1 | > 4 mM (inactive) |
| CC(=O)Nc1c(C#N)c(C(C)(C)C)cn1C | > 4 mM (inactive) |
| O=C(O)C(CO)c1ccccc1 (stereo not drawn) | > 4 mM (inactive) |

| SMILES | Kd |
| --- | --- |
| COc1cc(O)c2c(=O)c(O)c(-c3ccc(O)c(O)c3)oc2c1 | > 4 mM (inactive) |
| COc1cc(OC)c2c(c1Cl)OC1(C2=O)C(O)=CC(=O)CC1C (stereo not drawn) | > 4 mM (inactive) |
| Nc1cccc2nonc12 | > 4 mM (inactive) |
| Cn1[nH]c(C(F)(F)F)cc1=O | > 4 mM (inactive) |
| CC1(C)NC(=O)N(CN2CCOCC2)C1=O | > 4 mM (inactive) |
| CC(=O)NC(C)(C)C1CC=C(C)/C(=N\O)C1 (stereo not drawn) | > 4 mM (inactive) |
| O=C(Cc1cccs1)Nc1ccccn1 | > 4 mM (inactive) |
| COc1cccc(Oc2ccc(N)cc2)c1 | > 4 mM (inactive) |
| CCc1ccccc1NC(=O)c1ccoc1C | > 4 mM (inactive) |
| NC(=O)CCn1c(=O)oc2ccccc21 | > 4 mM (inactive) |
| Cc1ccc(C(O)c2nccn2C)o1 (stereo not drawn) | > 4 mM (inactive) |
| Cc1cc(C(=O)N2CCN(c3ccccn3)CC2)c(C)o1 | > 4 mM (inactive) |
| CC(=O)Oc1ccc(-c2cc(=O)c3c(OC(C)=O)cc(OC(C)=O)cc3o2)cc1 | > 4 mM (inactive) |
| CC(=O)NC(=S)Nc1cccc(C(=O)O)c1C | > 4 mM (inactive) |
| CCCn1cnc2sc(C(N)=O)c(C)c2c1=O | > 4 mM (inactive) |
| Nc1ncc2[nH]cnc2n1 | > 4 mM (inactive) |
| O=C(O)C1CCN(C(=O)c2cccs2)CC1 | > 4 mM (inactive) |
| CCOC(=O)C1CCN(Cc2ccccc2)CC1 | > 4 mM (inactive) |
| CCOC(=O)c1c(SC)nc(=O)[nH]c1C | > 4 mM (inactive) |
| Cc1ccccc1-n1c(-c2cccnc2)n[nH]c1=S | > 4 mM (inactive) |
| CC1(NC(=O)NCc2ccccc2)CCS(=O)(=O)C1 (stereo not drawn) | > 4 mM (inactive) |
| Cc1ccc(O)c(NC(=O)c2ccco2)c1 | > 4 mM (inactive) |
| CNS(=O)(=O)c1cc(OC)ccc1OC | > 4 mM (inactive) |

| SMILES | Kd |
| --- | --- |
| O=c1c2ccccc2[nH]c2ncccc12 | > 4 mM (inactive) |
| OC[C@@H]1CCCN2CCCC[C@H]12 | > 4 mM (inactive) |
| NC1=NCc2ccccc21 | > 4 mM (inactive) |
| COC(=O)C[C@@H]1C2(C)C(=O)[C@@H](CC3C2CC[C@]2(C)C3CC(=O)O[C@H]2c2ccoc2)[C@H](OC(C)=O)C1(C)C (stereo partly drawn) | > 4 mM (inactive) |
| O=C(O)Cc1c[nH]c2ccccc12 | > 4 mM (inactive) |
| CC12CCC(O)CC1CCC1C2[C@H](O)CC2(C)C(C3=CC(=O)OC3)CCC12O (stereo partly drawn) | > 4 mM (inactive) |
| Cn1c(=O)c2cn3ncccc3c2n(C)c1=O | > 4 mM (inactive) |
| Cc1ccc(C(=O)Nn2cnnc2)s1 | > 4 mM (inactive) |
| O=C(Oc1ccc(-c2nnco2)cc1)N1CCOCC1 | > 4 mM (inactive) |
| O=C1OC(N2CCOCC2)c2ccccc21 (stereo not drawn) | > 4 mM (inactive) |
| C[C@H](CCC(=O)O)[C@H]1CCC2C3C(CC[C@@]21C)[C@@]1(C)CC[C@@H](O)C[C@H]1C[C@H]3O (stereo partly drawn) | > 4 mM (inactive) |
| O=C(NCCCO)c1ccncc1 | > 4 mM (inactive) |
| O=c1/c(=C/c2ccccc2F)sc2ncnn12 | > 4 mM (inactive) |
| COc1ccc(NC(=O)C2CC(=O)N=C(N)S2)cc1 (stereo not drawn) | > 4 mM (inactive) |
| O=C(NCC1CCNCC1)c1ccccn1 | > 4 mM (inactive) |
| Cc1cc(C(=O)Nc2ccc3c(c2)OCO3)cs1 | > 4 mM (inactive) |
| Cc1cc(O)c2c(c1)C(=O)c1cccc(O)c1C2=O | > 4 mM (inactive) |
| C=C1C2CC[C@@]3(C)[C@H](c4ccoc4)OC(=O)C[C@]13O[C@H]1CC(O)C(C)(C)C(CC(=O)OC)[C@@]21C (stereo partly drawn) | > 4 mM (inactive) |
| Clc1ccc(-c2nnc3ccccn23)cc1 | > 4 mM (inactive) |
| CCn1cnc2cc([N+](=O)[O-])ccc2c1=O | > 4 mM (inactive) |
| CC(C)CCCC1(C)C=Cc2c(O)c3c(c(CCC(C)C)c2O1)OC12C(CC4CC1C(C)(C)OC2(CCC(C)C(=O)O)C4O)C3=O (stereo not drawn) | > 4 mM (inactive) |
